In one assay the target is T1, activated human C1 (Homo sapiens, UniProt P09871).
T1 sequence (P09871 16-437 limits assumed): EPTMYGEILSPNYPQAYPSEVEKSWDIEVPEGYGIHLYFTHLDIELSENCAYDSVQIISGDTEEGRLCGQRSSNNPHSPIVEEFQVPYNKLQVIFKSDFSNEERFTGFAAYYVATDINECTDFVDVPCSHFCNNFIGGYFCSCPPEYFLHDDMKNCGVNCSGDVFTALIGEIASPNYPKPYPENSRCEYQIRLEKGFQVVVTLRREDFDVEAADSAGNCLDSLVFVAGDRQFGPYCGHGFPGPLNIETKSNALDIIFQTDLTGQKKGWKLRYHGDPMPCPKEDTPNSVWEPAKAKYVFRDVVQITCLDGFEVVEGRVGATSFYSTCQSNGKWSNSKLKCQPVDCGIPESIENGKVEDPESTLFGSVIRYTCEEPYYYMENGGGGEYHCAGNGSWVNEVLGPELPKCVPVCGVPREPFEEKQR
T1 sequence (P09871 438-688 limits assumed): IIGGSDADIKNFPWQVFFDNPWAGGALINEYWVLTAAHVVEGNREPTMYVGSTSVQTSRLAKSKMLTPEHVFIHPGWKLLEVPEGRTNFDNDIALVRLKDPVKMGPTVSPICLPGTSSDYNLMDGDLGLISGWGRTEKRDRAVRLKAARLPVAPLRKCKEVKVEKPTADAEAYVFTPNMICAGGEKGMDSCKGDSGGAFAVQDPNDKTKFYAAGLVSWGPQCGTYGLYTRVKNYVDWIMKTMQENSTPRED
Put plainly: Test Code 026 (C1 inhibitor). The note with it: serial dilutions are twofold; higher well number indicates higher activity. The class given is biochemical. On the procedure: (§1) An active inhibitor protects C2 from C1 and C4; (ii) Cap 50 Test--Here, appropriate amounts of the test compound are added to a pool of guinea pig serum in vitro, after which the undiluted serum capillary tube assay referred to above is run. The concentration of compound inhibiting 50% is reported; and (iii) Guinea Pig Intraperitoneal Test (GPIP)--Guinea pigs weighing about 300 g. are dosed intraperitoneally (i.p.) with 200 mg./kg. of the test compound dissolved in saline and adjusted to pH 7-8. Approximately 0.4 ml. blood samples, taken by orbital sinus puncture 30 minutes and one hour after injections, are collected directly into centrifuge tubes; 5 ml. blood samples, taken by decapitation 2 hours after injection are collected directly into beakers. The samples are allowed to clot, centrifuged, and the resultant sera are assayed for complement activity using the capillary complement assay. Percent inhibition are calculated by comparison with simultaneous controls.

The subject of assay [1] is complement activity of sera. Description: Guinea Pig Intraperitoneal Test (GPIP). The settings on record: Cavia porcellus, ip, 200 mg./kg. i.p., read-out: In vivo Activity (Guinea Pig) Intraperitoneal % Inhibition. On the procedure:
as §1, with “[…],” for “taken by orbital sinus puncture 30 minutes and one hour after injections,”, “taken by decapitation 2 hours after injection are collected directly into” left out

A further assay has as its system human serum complement. The settings on record: in vitro and in vivo; cited from earlier work.

Results on three compounds are retold here after patent publication US4342753A, “Carboxyalkyl derivatives of rutin poly(H-)sulfate” (American Cyanamid Company, priority 1981, dated 1982).

Structures can show the parent of a compound that is named as a salt. Where two headings read alike, the source gives them in different places.

Broadly, the inhibition is the change of the read-out against control, counted positive when it falls.

Consider `C[C@@H]1O[C@@H](OC[C@H]2O[C@@H](Oc3c(-c4ccc(OCC(=O)O)c(OS(=O)(=O)O)c4)oc4cc(OCC(=O)O)cc(OS(=O)(=O)O)c4c3=O)[C@H](OS(=O)(=O)O)[C@@H](OS(=O)(=O)O)[C@@H]2OS(=O)(=O)O)[C@H](OS(=O)(=O)O)[C@H](OS(=O)(=O)O)[C@H]1OS(=O)(=O)O` [4',7-Bis(carboxymethyl)rutin, octa(H-sulfate), decasodium salt], for which, on activated human C1, the “In vitro Activity 026 (activity in wells, serial dilution assay)” value was determined as 11 wells.

With `C[C@@H]1O[C@@H](OC[C@H]2O[C@@H](Oc3c(-c4ccc(OCC(=O)O)c(OS(=O)(=O)O)c4)oc4cc(OS(=O)(=O)O)cc(OS(=O)(=O)O)c4c3=O)[C@H](OS(=O)(=O)O)[C@@H](OS(=O)(=O)O)[C@@H]2OS(=O)(=O)O)[C@H](OS(=O)(=O)O)[C@H](OS(=O)(=O)O)[C@H]1OS(=O)(=O)O` [4'-Carboxymethyl-rutin, nona(H-sulfate)decasodium salt], at activated human C1, the “In vitro Activity 026 (activity in wells, serial dilution assay)” value is 10 wells. The inhibition at 200 mg/kg in assay [1] (Time 2 hours) came out at 82%; in assay [1] (Time 6 hours), 69%; in assay [1] (Time 24 hours), 18%.

Take pentosanpolysulfoester: in the assay with human serum complement, the anticomplementary activity result was “has an anticomplementary activity on human serum, both in vitro and in vivo”.
